# Values of other authors as cited in US8968725B2, “Genipin cross-linked fibrin gels” (University of Vermont and State Agricultural College, priority 2010, dated 2015).
# System: mice
# Details: mouse, in vivo, iv
smiles,measurement,value
"COC(=O)C1=CO[C@@H](O)[C@H]2C(CO)=CC[C@H]12 [Genipin, Methyl (1R,2R,6S)-2-hydroxy-9-(hydroxymethyl)-3-oxabicyclo[4.3.0]nona-4,8-diene-5-carboxylate]",LD50,382 mg/kg
